Source: ChEMBL document CHEMBL1201861, “Genomics of Drug Sensitity in Cancer screening data, Wellcome Trust Sanger Institute”

tested on: Ca-Ski; test: cells; type: functional, cell-based; details: Homo sapiens;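 note: cell viability assay measuring inhibition of Ca-Ski cell growth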
Description: SANGER: Inhibition of human Ca-Ski cell growth in a cell viability assay.

Question: Which IC50 does the source give for `CN(NC(=O)CC(=O)NN(C)C(=S)c1ccccc1)C(=S)c1ccccc1` [ELESCLOMOL] here?
Answer: Its IC50 is greater than 0.2 µM.

tested on: DOK; test: cells; type: functional, cell-based; details: Homo sapiens;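 note: cell viability assay read-out, values reflect inhibition of cell growth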
Description: SANGER: Inhibition of human DOK cell growth in a cell viability assay.

Question: Which IC50 does the source give for `CN(NC(=O)CC(=O)NN(C)C(=S)c1ccccc1)C(=S)c1ccccc1` [ELESCLOMOL] here?
Answer: Its IC50 is 0.0179 µM.

tested on: DU-145; test: cells; type: functional, cell-based; details: Homo sapiens
Description: SANGER: Inhibition of human DU-145 cell growth in a cell viability assay.

Question: Which IC50 does the source give for `CN(NC(=O)CC(=O)NN(C)C(=S)c1ccccc1)C(=S)c1ccccc1` [ELESCLOMOL] here?
Answer: The IC50 was greater than 0.2 µM.

tested on: EC-GI-10; test: cells; type: functional, cell-based, Homo sapiens; details: Homo sapiens, EC-GI-10
Description: SANGER: Inhibition of human EC-GI-10 cell growth in a cell viability assay.

Question: `CN(NC(=O)CC(=O)NN(C)C(=S)c1ccccc1)C(=S)c1ccccc1` [ELESCLOMOL] was tested. Which IC50 did it give?
Answer: The IC50 was 0.0446 µM.

tested on: GP5d; test: cells; type: functional, cell-based; details: Homo sapiens;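 note: growth inhibition of human GP5d cells, read out with a cell viability assay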
Description: SANGER: Inhibition of human GP5d cell growth in a cell viability assay.

Question: For `CN(NC(=O)CC(=O)NN(C)C(=S)c1ccccc1)C(=S)c1ccccc1` [ELESCLOMOL], which IC50 is on record?
Answer: Its IC50 is greater than 0.2 µM.

tested on: HCC1569; test: cells; type: functional, cell-based; details: Homo sapiens;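 note: growth inhibition of human HCC1569 cells, read out with a cell viability assay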
Description: SANGER: Inhibition of human HCC1569 cell growth in a cell viability assay.

Question: Which IC50 does the source give for `CN(NC(=O)CC(=O)NN(C)C(=S)c1ccccc1)C(=S)c1ccccc1` [ELESCLOMOL] here?
Answer: Its IC50 is greater than 0.2 µM.

tested on: HO-1-N-1; test: cells; type: functional, cell-based; details: Homo sapiens;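 note: growth inhibition of human HO-1-N-1 cells, read out with a cell viability assay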
Description: SANGER: Inhibition of human HO-1-N-1 cell growth in a cell viability assay.

Question: How did the IC50 turn out when `CN(NC(=O)CC(=O)NN(C)C(=S)c1ccccc1)C(=S)c1ccccc1` [ELESCLOMOL] was run?
Answer: The IC50 was 0.0245 µM.

tested on: HT1197; test: cells; type: functional, cell-based, HT-1197; details: Homo sapiens
Description: SANGER: Inhibition of human HT-1197 cell growth in a cell viability assay.

Question: With `CN(NC(=O)CC(=O)NN(C)C(=S)c1ccccc1)C(=S)c1ccccc1` [ELESCLOMOL] as the compound, how does the IC50 read?
Answer: The IC50 was 0.0218 µM.

tested on: HuP-T4; test: cells; type: functional, cell-based; details: Homo sapiens;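 note: cell viability assay measuring how much HuP-T4 cell growth is inhibited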
Description: SANGER: Inhibition of human HuP-T4 cell growth in a cell viability assay.

Question: How did the IC50 turn out when `CN(NC(=O)CC(=O)NN(C)C(=S)c1ccccc1)C(=S)c1ccccc1` [ELESCLOMOL] was run?
Answer: The IC50 was 0.0207 µM.

tested on: IGR-1; test: cells; type: functional, cell-based; details: Homo sapiens;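 note: growth inhibition of human IGR-1 cells, read out with a cell viability assay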
Description: SANGER: Inhibition of human IGR-1 cell growth in a cell viability assay.

Question: `CN(NC(=O)CC(=O)NN(C)C(=S)c1ccccc1)C(=S)c1ccccc1` [ELESCLOMOL] was tested. Which IC50 did it give?
Answer: The IC50 was greater than 0.2 µM.

tested on: IGROV-1; test: cells; type: functional, cell-based; details: Homo sapiens;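 note: reduction of IGROV-1 cell growth, read out with a viability assay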
Description: SANGER: Inhibition of human IGROV-1 cell growth in a cell viability assay.

Question: With `CN(NC(=O)CC(=O)NN(C)C(=S)c1ccccc1)C(=S)c1ccccc1` [ELESCLOMOL] as the compound, how does the IC50 read?
Answer: The IC50 was 0.104 µM.

tested on: J82; test: cells; type: functional, cell-based; details: Homo sapiens;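 note: growth inhibition of J82 cells, read out with a cell viability assay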
Description: SANGER: Inhibition of human J82 cell growth in a cell viability assay.

Question: With `CN(NC(=O)CC(=O)NN(C)C(=S)c1ccccc1)C(=S)c1ccccc1` [ELESCLOMOL] as the compound, how does the IC50 read?
Answer: The IC50 was 0.0141 µM.

tested on: KYSE-520 cell line; test: cells; type: functional, cell-based; details: Homo sapiens;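 note: growth inhibition of human KYSE-520 cells, read out with a viability assay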
Description: SANGER: Inhibition of human KYSE-520 cell growth in a cell viability assay.

Question: Which IC50 does the source give for `CN(NC(=O)CC(=O)NN(C)C(=S)c1ccccc1)C(=S)c1ccccc1` [ELESCLOMOL] here?
Answer: The IC50 was 0.104 µM.

tested on: LU-99A; test: cells; type: functional, cell-based; details: Homo sapiens;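 note: growth inhibition of LU-99A cells, read out with a cell viability assay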
Description: SANGER: Inhibition of human LU-99A cell growth in a cell viability assay.

Question: How did the IC50 turn out when `CN(NC(=O)CC(=O)NN(C)C(=S)c1ccccc1)C(=S)c1ccccc1` [ELESCLOMOL] was run?
Answer: The IC50 was greater than 0.2 µM.

tested on: M14; test: cells; type: functional, cell-based; details: Homo sapiens;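 note: growth inhibition of M14 cells, read out with a cell viability assay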
Description: SANGER: Inhibition of human M14 cell growth in a cell viability assay.

Question: Which IC50 does the source give for `CN(NC(=O)CC(=O)NN(C)C(=S)c1ccccc1)C(=S)c1ccccc1` [ELESCLOMOL] here?
Answer: The IC50 was 0.122 µM.

tested on: MDA-MB-231; test: cells; type: functional, cell-based; details: Homo sapiens
Description: SANGER: Inhibition of human MDA-MB-231 cell growth in a cell viability assay.

Question: For `CN(NC(=O)CC(=O)NN(C)C(=S)c1ccccc1)C(=S)c1ccccc1` [ELESCLOMOL], which IC50 is on record?
Answer: The IC50 was 0.019 µM.

tested on: MEL-JUSO; test: cells; type: functional, cell-based; details: Homo sapiens;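 note: growth inhibition of human MEL-JUSO cells, read out with a cell viability assay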
Description: SANGER: Inhibition of human MEL-JUSO cell growth in a cell viability assay.

Question: For `CN(NC(=O)CC(=O)NN(C)C(=S)c1ccccc1)C(=S)c1ccccc1` [ELESCLOMOL], which IC50 is on record?
Answer: Its IC50 is 0.0106 µM.

tested on: MFE-280; test: cells; type: functional, cell-based; details: Homo sapiens;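 note: growth inhibition of MFE-280 cells, determined with a cell viability readout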
Description: SANGER: Inhibition of human MFE-280 cell growth in a cell viability assay.

Question: `CN(NC(=O)CC(=O)NN(C)C(=S)c1ccccc1)C(=S)c1ccccc1` [ELESCLOMOL] was tested. Which IC50 did it give?
Answer: The IC50 was greater than 0.2 µM.

tested on: MOLT-13; test: cells; type: functional, cell-based; details: Homo sapiens;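 note: IC50 for suppression of MOLT-13 cell growth, read out with a cell viability assay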
Description: SANGER: Inhibition of human MOLT-13 cell growth in a cell viability assay.

Question: How did the IC50 turn out when `CN(NC(=O)CC(=O)NN(C)C(=S)c1ccccc1)C(=S)c1ccccc1` [ELESCLOMOL] was run?
Answer: The IC50 was greater than 0.2 µM.

tested on: NB14; test: cells; type: functional, cell-based, Homo sapiens; details: Homo sapiens, NB14;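 note: growth inhibition of NB14 cells measured with a cell viability assay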
Description: SANGER: Inhibition of human NB14 cell growth in a cell viability assay.

Question: Which IC50 does the source give for `CN(NC(=O)CC(=O)NN(C)C(=S)c1ccccc1)C(=S)c1ccccc1` [ELESCLOMOL] here?
Answer: Its IC50 is 0.00664 µM.

tested on: NCI-H1573; test: cells; type: functional, cell-based; details: Homo sapiens;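 note: growth inhibition of NCI-H1573 cells, read out with a cell viability assay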
Description: SANGER: Inhibition of human NCI-H1573 cell growth in a cell viability assay.

Question: How did the IC50 turn out when `CN(NC(=O)CC(=O)NN(C)C(=S)c1ccccc1)C(=S)c1ccccc1` [ELESCLOMOL] was run?
Answer: The IC50 was 0.189 µM.

tested on: NCI-H1755; test: cells; type: functional, cell-based; details: Homo sapiens;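 note: cell viability readout used to measure growth inhibition of NCI-H1755 cells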
Description: SANGER: Inhibition of human NCI-H1755 cell growth in a cell viability assay.

Question: With `CN(NC(=O)CC(=O)NN(C)C(=S)c1ccccc1)C(=S)c1ccccc1` [ELESCLOMOL] as the compound, how does the IC50 read?
Answer: Its IC50 is 0.0133 µM.

tested on: NCI-H1993; test: cells; type: functional, cell-based; details: Homo sapiens;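 note: growth inhibition of the cancer cell line, assessed with a cell viability assay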
Description: SANGER: Inhibition of human NCI-H1993 cell growth in a cell viability assay.

Question: How did the IC50 turn out when `CN(NC(=O)CC(=O)NN(C)C(=S)c1ccccc1)C(=S)c1ccccc1` [ELESCLOMOL] was run?
Answer: The IC50 was greater than 0.2 µM.

tested on: NCI-H2087; test: cells; type: functional, cell-based; details: Homo sapiens;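 note: growth inhibition determined with a cell viability readout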
Description: SANGER: Inhibition of human NCI-H2087 cell growth in a cell viability assay.

Question: Which IC50 does the source give for `CN(NC(=O)CC(=O)NN(C)C(=S)c1ccccc1)C(=S)c1ccccc1` [ELESCLOMOL] here?
Answer: The IC50 was greater than 0.2 µM.

tested on: NCI-H2342; test: cells; type: functional, cell-based; details: Homo sapiens;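 note: growth inhibition of the cancer cell line, determined with a cell viability assay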
Description: SANGER: Inhibition of human NCI-H2342 cell growth in a cell viability assay.

Question: For `CN(NC(=O)CC(=O)NN(C)C(=S)c1ccccc1)C(=S)c1ccccc1` [ELESCLOMOL], which IC50 is on record?
Answer: The IC50 was 0.0433 µM.

tested on: NCI-H292; test: cells; type: functional, cell-based; details: Homo sapiens;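 note: growth inhibition of NCI-H292 cells, read out with a cell viability assay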
Description: SANGER: Inhibition of human NCI-H292 cell growth in a cell viability assay.

Question: How did the IC50 turn out when `CN(NC(=O)CC(=O)NN(C)C(=S)c1ccccc1)C(=S)c1ccccc1` [ELESCLOMOL] was run?
Answer: Its IC50 is 0.000886 µM.

tested on: NCI-H520; test: cells; type: functional, cell-based; details: Homo sapiens;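 note: growth inhibition of NCI-H520 cells, measured by a cell viability assay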
Description: SANGER: Inhibition of human NCI-H520 cell growth in a cell viability assay.

Question: For `CN(NC(=O)CC(=O)NN(C)C(=S)c1ccccc1)C(=S)c1ccccc1` [ELESCLOMOL], which IC50 is on record?
Answer: The IC50 was 0.135 µM.

tested on: OAW-28; test: cells; type: functional, cell-based; details: Homo sapiens;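 note: growth inhibition of OAW-28 cells, read out with a cell viability assay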
Description: SANGER: Inhibition of human OAW-28 cell growth in a cell viability assay.

Question: For `CN(NC(=O)CC(=O)NN(C)C(=S)c1ccccc1)C(=S)c1ccccc1` [ELESCLOMOL], which IC50 is on record?
Answer: Its IC50 is greater than 0.2 µM.

tested on: OVCAR-5; test: cells; type: functional, cell-based; details: Homo sapiens;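 note: growth inhibition of human OVCAR-5 cells, read out with a cell viability assay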
Description: SANGER: Inhibition of human OVCAR-5 cell growth in a cell viability assay.

Question: For `CN(NC(=O)CC(=O)NN(C)C(=S)c1ccccc1)C(=S)c1ccccc1` [ELESCLOMOL], which IC50 is on record?
Answer: Its IC50 is 0.00183 µM.

tested on: RPMI-2650; test: cells; type: functional, cell-based; details: Homo sapiens
Description: SANGER: Inhibition of human RPMI-2650 cell growth in a cell viability assay.

Question: For `CN(NC(=O)CC(=O)NN(C)C(=S)c1ccccc1)C(=S)c1ccccc1` [ELESCLOMOL], which IC50 is on record?
Answer: Its IC50 is 0.0341 µM.

tested on: RVH-421; test: cells; type: functional, cell-based; details: Homo sapiens
Description: SANGER: Inhibition of human RVH-421 cell growth in a cell viability assay.

Question: How did the IC50 turn out when `CN(NC(=O)CC(=O)NN(C)C(=S)c1ccccc1)C(=S)c1ccccc1` [ELESCLOMOL] was run?
Answer: Its IC50 is 0.0762 µM.

tested on: S-117; test: cells; type: functional, cell-based; details: Homo sapiens
Description: SANGER: Inhibition of human S-117 cell growth in a cell viability assay.

Question: `CN(NC(=O)CC(=O)NN(C)C(=S)c1ccccc1)C(=S)c1ccccc1` [ELESCLOMOL] was tested. Which IC50 did it give?
Answer: Its IC50 is 0.0274 µM.

tested on: SBC-5; test: cells; type: functional, cell-based; details: Homo sapiens;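 note: cell viability assay read-out, IC50 is the concentration that inhibits growth of the cells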
Description: SANGER: Inhibition of human SBC-5 cell growth in a cell viability assay.

Question: How did the IC50 turn out when `CN(NC(=O)CC(=O)NN(C)C(=S)c1ccccc1)C(=S)c1ccccc1` [ELESCLOMOL] was run?
Answer: The IC50 was 0.0216 µM.

tested on: SK-OV-3; test: cells; type: functional, cell-based; details: Homo sapiens;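 note: growth inhibition of SK-OV-3 human cells, read out with a cell viability assay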
Description: SANGER: Inhibition of human SK-OV-3 cell growth in a cell viability assay.

Question: Which IC50 does the source give for `CN(NC(=O)CC(=O)NN(C)C(=S)c1ccccc1)C(=S)c1ccccc1` [ELESCLOMOL] here?
Answer: Its IC50 is 0.00375 µM.

tested on: SNU-423; test: cells; type: functional, cell-based; details: Homo sapiens
Description: SANGER: Inhibition of human SNU-423 cell growth in a cell viability assay.

Question: `CN(NC(=O)CC(=O)NN(C)C(=S)c1ccccc1)C(=S)c1ccccc1` [ELESCLOMOL] was tested. Which IC50 did it give?
Answer: Its IC50 is 0.0152 µM.

tested on: SW1088; test: cells; type: functional, cell-based; details: Homo sapiens;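 note: growth inhibition of human SW1088 cells, read out by a cell viability assay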
Description: SANGER: Inhibition of human SW1088 cell growth in a cell viability assay.

Question: For `CN(NC(=O)CC(=O)NN(C)C(=S)c1ccccc1)C(=S)c1ccccc1` [ELESCLOMOL], which IC50 is on record?
Answer: The IC50 was 0.0821 µM.

tested on: SW48; test: cells; type: functional, cell-based; details: Homo sapiens;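 note: growth inhibition of SW48 cells, read out with a cell viability assay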
Description: SANGER: Inhibition of human SW48 cell growth in a cell viability assay.

Question: For `CN(NC(=O)CC(=O)NN(C)C(=S)c1ccccc1)C(=S)c1ccccc1` [ELESCLOMOL], which IC50 is on record?
Answer: Its IC50 is 0.108 µM.

tested on: T47D; test: cells; type: functional, cell-based; details: Homo sapiens;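 note: growth inhibition of human T47D cells, measured with a cell viability assay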
Description: SANGER: Inhibition of human T47D cell growth in a cell viability assay.

Question: With `CN(NC(=O)CC(=O)NN(C)C(=S)c1ccccc1)C(=S)c1ccccc1` [ELESCLOMOL] as the compound, how does the IC50 read?
Answer: Its IC50 is 0.0168 µM.

tested on: CWR22R; test: cells; type: functional, cell-based; details: Homo sapiens, 22Rv1;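 note: growth inhibition of 22Rv1 cells, read out with a cell viability assay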
Description: SANGER: Inhibition of human 22RV1 cell growth in a cell viability assay.

Question: With `CN(NC(=O)CC(=O)NN(C)C(=S)c1ccccc1)C(=S)c1ccccc1` [ELESCLOMOL] as the compound, how does the IC50 read?
Answer: Its IC50 is 0.0113 µM.

tested on: 639-V; test: cells; type: functional, cell-based; details: Homo sapiens;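 note: growth inhibition of 639-V cells, read out with a cell viability assay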
Description: SANGER: Inhibition of human 639-V cell growth in a cell viability assay.

Question: `CN(NC(=O)CC(=O)NN(C)C(=S)c1ccccc1)C(=S)c1ccccc1` [ELESCLOMOL] was tested. Which IC50 did it give?
Answer: Its IC50 is 0.0167 µM.

tested on: ASPC1; test: cells; type: functional, cell-based; details: Homo sapiens;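 note: growth inhibition of AsPC-1 cells, read out with a cell viability assay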
Description: SANGER: Inhibition of human AsPC-1 cell growth in a cell viability assay.

Question: Which IC50 does the source give for `CN(NC(=O)CC(=O)NN(C)C(=S)c1ccccc1)C(=S)c1ccccc1` [ELESCLOMOL] here?
Answer: Its IC50 is 0.0377 µM.

tested on: C32; test: cells; type: functional, cell-based; details: Homo sapiens;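 note: cell viability assay, with IC50 reflecting inhibition of C32 cell growth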
Description: SANGER: Inhibition of human C32 cell growth in a cell viability assay.

Question: Which IC50 does the source give for `CN(NC(=O)CC(=O)NN(C)C(=S)c1ccccc1)C(=S)c1ccccc1` [ELESCLOMOL] here?
Answer: Its IC50 is 0.0263 µM.

tested on: CAL-120; test: cells; type: functional, cell-based; details: Homo sapiens;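 note: cell growth inhibition, read out as cell viability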
Description: SANGER: Inhibition of human CAL-120 cell growth in a cell viability assay.

Question: For `CN(NC(=O)CC(=O)NN(C)C(=S)c1ccccc1)C(=S)c1ccccc1` [ELESCLOMOL], which IC50 is on record?
Answer: Its IC50 is 0.014 µM.

tested on: CAL-27; test: cells; type: functional, cell-based; details: Homo sapiens;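 note: Viability-based readout, IC50 reflecting inhibition of CAL-27 cell growth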
Description: SANGER: Inhibition of human CAL-27 cell growth in a cell viability assay.

Question: `CN(NC(=O)CC(=O)NN(C)C(=S)c1ccccc1)C(=S)c1ccccc1` [ELESCLOMOL] was tested. Which IC50 did it give?
Answer: Its IC50 is 0.0334 µM.

tested on: CAL-62; test: cells; type: functional, cell-based; details: Homo sapiens;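 note: growth inhibition of CAL-62 cells, read out with a cell viability assay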
Description: SANGER: Inhibition of human CAL-62 cell growth in a cell viability assay.

Question: For `CN(NC(=O)CC(=O)NN(C)C(=S)c1ccccc1)C(=S)c1ccccc1` [ELESCLOMOL], which IC50 is on record?
Answer: The IC50 was 0.0552 µM.

tested on: UACC-62; test: cells; type: functional, cell-based; details: Homo sapiens;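 note: growth inhibition of human UACC-62 cells, read out by a cell viability assay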
Description: SANGER: Inhibition of human UACC-62 cell growth in a cell viability assay.

Question: How did the IC50 turn out when `CN(NC(=O)CC(=O)NN(C)C(=S)c1ccccc1)C(=S)c1ccccc1` [ELESCLOMOL] was run?
Answer: The IC50 was 0.0232 µM.

tested on: VMRC-RCZ; test: cells; type: functional, cell-based; details: Homo sapiens;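 note: growth inhibition measured with a cell viability assay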
Description: SANGER: Inhibition of human VMRC-RCZ cell growth in a cell viability assay.

Question: How did the IC50 turn out when `CN(NC(=O)CC(=O)NN(C)C(=S)c1ccccc1)C(=S)c1ccccc1` [ELESCLOMOL] was run?
Answer: Its IC50 is 0.108 µM.

tested on: CHL-1; test: cells; type: functional, cell-based; details: Homo sapiens;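 note: cell growth inhibition, read out with a cell viability assay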
Description: SANGER: Inhibition of human CHL-1 cell growth in a cell viability assay.

Question: How did the IC50 turn out when `CN(NC(=O)CC(=O)NN(C)C(=S)c1ccccc1)C(=S)c1ccccc1` [ELESCLOMOL] was run?
Answer: Its IC50 is 0.00281 µM.
